# Tests used:
# [1] = test system: E. coli expressing HaloTag; assay: BaCAPA control: labeling with chloroalkane-tagged dye; type: cell-based, Escherichia coli; conditions: 5 μM dye, compared with R110cl, FIG. 2C
# Description: In an embodiment, fluorescence levels were determined in bacterial cells that express HaloTag proteins in the cytosol by encoding the protein on an inducible plasmid. Bacterial cells carrying the HaloTag-expressing plasmid were grown to mid-log, induced with isopropyl-β-D-1-thiogalactopyranoside (IPTG), and incubated with a fluorophore modified chloroalkane. Cytosolic HaloTag promotes the formation of a covalent bond with the fluorophore-linked chloroalkane tail (FIG. 2A). Total labeling levels of bacterial cells is then quantified using flow cytometry. In a first step in the BaCAPA, bacterial cells were treated with Rhodamine 110 modified with chloroalkane (R110cl). […] Appreciating that the fluorophore itself could be subject to the same barrier elements that are inherent to E. coli, there was also evaluated the labeling of bacterial cells with a smaller fluorophore, namely coumarin (COMcl). […] While it was clear that coumarin could also covalently modify HaloTag-expressing bacterial cells, the relative fluorescence increase was more modest in cells treated with COMcl (FIG. 2C). […]
# To empirically establish the dye concentration that optimizes the signal output for the assay, bacterial cells were treated with a range of R110cl concentrations (FIG. 2D). […] HaloTag labeling with R110cl can be analyzed from the whole cellular proteome because of the selectivity of this enzymatic reaction. […]
# [2] = test system: E. coli expressing HaloTag; assay: Bacterial ChloroAlkane Penetration Assay (BaCAPA) pulse-chase, flow cytometry; type: cell-based, Escherichia coli; conditions: for EC50: Escherichia coli, pulse with chloroalkane-tagged molecule, IPTG induced, flow cytometry, read-out: EC50 (apparent accumulation/permeation, BaCAPA)
# Description: This method relies on the genetically encoded HaloTag^24, a mutant form of a bacterial haloalkane dehalogenase that facilitates covalent bond formation with chloroalkane-linked ligands (FIG. 1). […] The assay is based on the expression of the HaloTag protein inside bacterial cells, which are exposed to molecules of interest linked to a chloroalkane tag. If the molecules reach the HaloTag proteins inside the bacteria, they will be covalently bound to the protein. This pulse step is followed by a chase step with a fluorophore-linked chloroalkane. […] Conversely, when a large fraction of molecules of interest permeate the cell membranes and reach the HaloTag proteins, there will be reduced sites available to react with the fluorophore.
# In some embodiments, the BaCAPA process can report on apparent accumulation of small molecules past the cellular envelope. In these embodiments, (non-fluorescent) small molecules modified with the chloroalkane are incubated with the bacterial cells expressing HaloTag first (pulse step), which is then followed by a treatment step with the dye R110cl (chase step).
# HaloTag Protein Expression: Cytoplasmic HaloTag protein. For expression of the HaloTag protein in E. coli, HaloTag expression plasmid Cyto_Halo_pET21(b)+ was transformed into E. coli BL21(DE3) and grown on an LB/agar plate with ampicillin (100 μg/mL) at 37° C. overnight. Colonies were picked and grown in 5 mL LB broth with ampicillin at 37° C. overnight. A culture tube containing 2 mL LB media was inoculated with the overnight culture at a ratio of 1:100 and cells were grown at 37° C. for 3 h hours, or until the optical density at 600 nm reached 0.6. Cultures were induced with 1 mM Isopropyl β-d-1-thiogalactopyranoside (IPTG) at 37° C. for 2 hours in a shaker incubator, and then pelleted at 4,000 rpm for 3 min in an HERAEUS Multicentrifuge X1 centrifuge (Thermofisher Scientific). The pellet was washed three times with 1×PBS pH 7.2 following which cells were ready for assaying. The identity of the protein was confirmed by SDS-PAGE.
# BaCAPA Pulse-Chase Protocol (chloroalkane-tagged molecule, chloroalkane-tagged dye). For a bacterial chloroalkane penetration assay (BaCAPA), 25 μL of serially diluted samples of the chloroalkane-tagged test molecule, in quadruplicate, were transferred into a 96-well plate at 2× of the desired concentration. The pellet obtained from the washing step above was resuspended in 2 mL of 1×PBS by vortexing thoroughly. […]
# E. coli = assay: Minimum Inhibitory Concentration; type: cell-based, Escherichia coli; conditions: for MIC: Escherichia coli, 24 h, 37° C., MH media
# Description: For all biological assays, laboratory strains of wild type E. coli (ATCC 25922), and K12 E. coli strains BL21(DE3) and E. coli Lemo21(DE3) were grown with shaking at 37° C. overnight from freezer glycerol stocks in 5 mL of Luria Broth (LB) media.
# Minimum Inhibitory Concentration. Compounds were serially diluted 2-fold from stock solutions to yield 12 test concentrations in U-bottom, 96-well plates. Overnight cultures were used to inoculate LB media 1:100 and regrown to exponential phase, as determined by optical density recorded at 600 nm (OD600). All cultures were diluted again to ca. 10^6 CFU/mL in MH media, and 100 μL was inoculated into each well of a U-bottom 96-well plate (BD Biosciences, BD 351177) containing 100 μL of compound solution (in line with CLSI Standards).^4Plates were incubated statically at 37° C. for 24 h upon which time wells were evaluated visually for bacterial growth. The MIC was determined as the lowest concentration of compound resulting in no bacterial growth visible to the naked eye, based on the majority of three independent experiments. Growth and sterility controls were conducted for each plate.
# E. coli outer membrane = assay: Outer membrane disruption: co-treatment with R110cl in BaCAPA; type: cell-based, Escherichia coli; conditions: for cellular fluorescence on co-incubation with R110cl: various concentrations, 5 μM R110cl, FIG. 3A/3B
# Description: It is well appreciated that the OM is the major barrier to the permeation of small molecules.^28 Considerable efforts have been devoted to the discovery of molecules that disrupt the OM barrier as antibiotic adjuvants with the goal of potentiating them and/or circumventing resistance.^29-31 Therefore, these agents hold the promise of synergistically enhancing the permeation of potential antibiotics in a broad and, potentially, impactful way.
# While there was a decrease in signal-to-noise, the signal strength in the presence of IPTG was well above that in the absence of IPTG.
# Polymyxin nonapeptide (PMBN) mediated bacterial chloroalkane-tagged molecule penetration. For the PMBN-mediated penetration assay, 25 μL of the desired PMBN concentration was added into the wells of a 96-well plate at 3× the final concentration along with 25 μL of the HaloTag protein cell suspension (both IPTG induced and non-induced cells). Next, 25 μL of the serially diluted samples of the chloroalkane-tagged test molecule was added into the wells at 3× the desired final concentration, in quadruplicate. The plates were incubated at 37° C. with shaking at 250 RPM. After 30 min, the plate was centrifuged to pellet the cells using a Jouan C4i centrifuge (Thermofisher Scientific). The supernatant was discarded, and the pellet was washed twice with PBS. The chase step followed by addition into each test well, 50 μL of […] chloroalkane-tagged rhodamine 110 and incubated for 30 min at 37° C. with shaking in a shaker incubator at 250 RPM. The plate was centrifuged to pellet the cells and cells were washed three times with PBS and fixed with 4% formaldehyde by incubating at room temperature for 30 min. The cells were analyzed by flow cytometry on the Attune NXT Acoustic Focusing Cytometer (Invitrogen) by exciting using the blue laser ([…]).
compound,measurement,setting,value
Cc1c(CC(=O)NCCOCCOCCCCCCCl)c(=O)oc2cc(N)ccc12 [COMcl],relative fluorescence increase in HaloTag-expressing cells,[1],more modest
"Cl.NCCOCCOCCCCCCCl [Compound 1, 2-(2-((6-Chlorohexyl)oxy)ethoxy)ethanamine hydrochloride]",EC50,[2]; chase with 5 μM R110cl,~5 µM
same,concentration at which nearly background fluorescence levels were observed,"[2]; concentration scan, chase with 5 μM R110cl",12 µM
"C[N+](C)(C)CC(=O)NCCOCCOCCCCCCCl [Compound 5, HaloTag-betainamide]",relative accumulation in E. coli,"[2]; methylation series of amino group, FIG. 4A",statistically significant lowered accumulation level
O=C(CCC(=O)N1CCN(c2cc3c(cc2F)c(=O)c(C(=O)O)cn3C2CC2)CC1)NCCOCCOCCCCCCCl [Compound 6],EC50,[2]; chase with 5 μM R110cl,42.2 µM
same,MIC,E. coli,0.5 µg/mL
O=C(CN1CCN(c2cc3c(cc2F)c(=O)c(C(=O)O)cn3C2CC2)CC1)NCCOCCOCCCCCCCl [Compound 7],MIC,E. coli,0.5 µg/mL
"O=C(NCCOCCOCCCCCCCl)c1cn(C2CC2)c2cc(N3CCNCC3)c(F)cc2c1=O [Compound 8, Ciprofloxacin-carboxy-HaloTag amide]",MIC,E. coli,4 µg/mL
same,increase of MIC value,E. coli; relative to derivatives 6 and 7,8 fold
Clc1cccc(CN=C2Nc3ccccc3NC23CCNCC3)c1 [liproxstatin],cellular fluorescence on co-incubation with R110cl,E. coli outer membrane,increase in cellular fluorescence
polymyxin B nonapeptide [PMBN],bacterial viability,E. coli cells,no loss of bacterial viability
same,cellular fluorescence relative to cells not treated with PMBN,"E. coli outer membrane; 10 μM of PMBN, co-treatment with R110cl",double
same,cellular fluorescence on co-incubation with R110cl,E. coli outer membrane,concentration-dependent increase in cellular fluorescence
